Experimental data reported in PMC10946275, “New imidazole-2-thiones linked to acenaphythylenone as dual DNA intercalators and topoisomerase II inhibitors: structural optimization, docking, and apoptosis studies” (Journal of Enzyme Inhibition and Medicinal Chemistry, 2024).

Key:
[1] = tested on: calf thymus DNA (ctDNA); assay: Terbium (Tb3+) luminescent biosensor detection of induced DNA damage; assay type: biochemical; conditions: for Tb luminescence enhancement (induced DNA damage): ctDNA incubated with compound 24 h, emission 545 nm, excitation 270 nm, compared with ctDNA-Tb mixture
Excerpt: Luminescence studies were accomplished in order to examine the possible DNA interaction with the studied compounds. Many luminescent biosensors are reported in literature for studying the possibility of DNA interaction with small molecules. […] Figure 5 presents a schematic diagram for the fluorometric detection of the induced DNA damage using Tb biosensor. Tb^3+ ion in the Tb luminescent probe is a trivalent lanthanide cation having low intrinsic luminescence in aqueous solutions[45]^,[46]. When Tb biosensor is added to a solution of DNA, it interacts differently with double-stranded DNA (dsDNA) and single-stranded DNA (ssDNA). With dsDNA, Tb^3+ ions are electrostatically attracted to the negatively charged phosphate backbone of the DNA. […] Therefore, the assessed compound damages dsDNA, ssDNA sites would be formed opposite to the site of damage and Tb^3+ would directly coordinate to the unpaired nucleobases in this single-stranded site.
For investigating the DNA interaction potential of the fourteen studied compounds, calf thymus DNA (ctDNA) was incubated with each compound for 24 h and then Tb was added to each mixture. Doxorubicin (DOX), a commonly used reference for DNA damaging agent was used and treated the same condition as the studied compounds. Tb luminescent intensity was measured at λmax = 545 nm after excitation at λmax = 270 nm.
Several concentrations within the range of 0.1 pM–200.0 μM of each of the studied compounds were incubated with ctDNA for 24 h. After which, Tb solution was added to aliquots of such mixtures and the luminescence intensity was recorded. Figure 7 presents Tb luminescence intensity as a function of the compound concentration for various compound/ctDNA/Tb mixtures. At minimum concentration of the studied compounds, minimum Tb luminescence was recorded. This reflects that the DNA molecule is undamaged, intact and acquiring a double helical structure. In this conformation, Tb ions are electrostatically attracted to the negatively charged DNA-phosphate backbone showing no increase in its luminescence. For solutions with higher concentrations of compounds 5b, 5h, and 5j (Figure 7a,c,and d). Tb fluorescence increased proportionally with the concentration until a concentration of 100 and 60 μM for compounds 5b, 5h, and 5j, respectively, where no further increase in the fluorescence occurs. This reflects that more DNA damage is induced with increasing concentrations of the three compounds. At concentrations higher than 100 and 60 μM for compounds 5b, 5h, and 5j, respectively, Tb luminescence remains constant at high fluorescence levels. […] Table 1 illustrates the analytical parameters elucidated as shown in Figure 7 for the quantification of the induced DNA damage by the studied compounds. The linearity parameters were calculated from the calibration curve in Figure 7-inset in order to obtain the minimum concentration of the studied compounds that would induce DNA damage.
Fluorescence measurements: Fluorescence spectra were measured between 290 and 800 nm with excitation at 270 nm of 100 µL solutions in a 1 cm path length Suprasil quartz fluorescence cuvette.
The PerkinElmer LS 55 fluorescence spectrophotometer was used to measure the fluorescence. After 24 h of incubation in buffer solution (40 mM Tris, 10 mM NaCl, pH 7.5), aliquots of each DNA-Compound mixture were combined with TbCl3 to confirm DNA damage. The final concentrations were […] ctDNA, 3 mM TbCl3, and 50 µM of each compound in buffer solution (40 mM Tris, 10 mM NaCl, pH 7.5). Calf thymus DNA (ctDNA) was combined with various quantities of each substance, ranging from 0.1 pM to 200 µM, for the experiment. The ultimate concentrations of […] ctDNA and 3 mM were achieved by adding Tb3 + solution to the ctDNA/compound combinations in buffer solution (40 mM Tris, 10 mM NaCl, pH 7.5) after 24 h of incubation.[44]
All chemicals, solvents, media and kits were purchased from commercial suppliers. […]

[2] = tested on: human colon cancer (HCT-116); assay: MTT cytotoxicity assay, HCT-116; assay type: cell-based; conditions: 24 h treatment, read-out: IC50 against HCT-116
Description: (§1) All chemicals, solvents, media and kits were purchased from commercial suppliers.
(§2) In vitro anticancer screening […]
(§3) against three cancer cell lines namely: hepatocellular carcinoma (HepG2), human breast adenocarcinoma (MCF-7) and human colon cancer (HCT -116) utilizing MTT assay2. Compounds […]
(§4) 5b and 5h were screened for their effects on the normal breast cell line MCF‐10a. Cells at a density of 1 × 104 were seeded in a 96‐well plate at 37°C for 48 hr under 5% CO2. After incubation, the cells were treated with different concentrations of the prepared molecules and incubated for 24 hr.
(§5) MTT dye was added after 24 h of drug treatment and incubated for 4 h at 37°C. Also, 100 μl of dimethyl sulphoxide was added to each well to dissolve the purple formazan formed. The color intensity of the formazan product, which represents the growth condition of the cells, was quantified using an enzyme‐linked immunosorbent assay (ELISA) plate reader at 570 nm. The experiments were carried out with at least three replicates and they were repeated at least three […]
(§6) *: Statistically significant at p ≤ 0.05
(§7) Means with any Common letter (a-e) are not significant (OR Means with totally Different letters (a-e) are significant)

[3] = tested on: hepatocellular carcinoma (HepG2); assay: MTT cytotoxicity assay, HepG2; assay type: cell-based; conditions: Homo sapiens, 24 h treatment, read-out: IC50 against HepG2
Description: (§8) (Supplementary file). Compounds 5b and 5h were screened for their effects on the normal breast cell line MCF‐10a. Cells at a density of 1 × 104 were seeded in a 96‐well plate at 37 °C for 48 h under 5% CO2. After incubation, the cells were treated with different concentrations of the prepared molecules and incubated for 24 h. MTT dye was added after 24 h of drug treatment and incubated for 4 h at 37 °C. Also, 100 μl of dimethyl sulphoxide was added to each well to dissolve the purple formazan formed. The colour intensity of the formazan product, which represents the growth condition of the cells, was quantified using an enzyme‐linked immunosorbent assay (ELISA) plate reader at 570 nm. The experiments were carried out with at least three replicates and they were repeated at least three times.
as §1, §2, §3, §4, §5, §6, §7

[4] = tested on: human breast adenocarcinoma (MCF-7); assay: MTT cytotoxicity assay, MCF-7; assay type: cell-based
Description: as §8, §1, §2, §3, §4, §5, §6, §7

[5] = tested on: MCF-7 cells; assay: Cell cycle analysis (DNA flow cytometry, PI)
Description: Cell cycle analysis: A FACS Calibur flow cytometer was used to measure the amount of DNA in the cell cycle analysis at 488 nm in accordance with the manufacturer’s recommendations. […] Cells were treated, rinsed twice, and then re-suspended in ice-cold PBS (phosphate buffer saline). After washing, 0.7 ml of 100% ethanol was added, and the mixture was then allowed to sit at 20 °C for 20 min. After washing, 500 μl of RNase was added, and then the mixture was incubated for 30 min. After that, PI was added, and the mixture was incubated without light for 30 min[22]^,[51].
3 Replica for each group Data was expressed using Mean ± SEM.
SEM: Standard error of mean
F: F for One way ANOVA test, Pairwise comparison bet. each 2 groups was done using Post Hoc Test (Tukey)
p: p value for comparing between the studied groups
p0: p value for comparing between Control and each other group
p1: p value for comparing between 5h and 5b
p2: p value for comparing between 5h and Dox
p3: p value for comparing between 5b and Dox
DNA content in the cell cycle analysis was quantified with the help ofa FACS Calibur flow
cytometer at 488 nm according to the manufacturer's instructions. Briefly, 2 × 10^5 cells/well were
cells were washed two times and resuspended in ice-cold phosphate buffer saline PBS. After
washing, 0.7 ml absolute ethanol was then added, followed by incubation at −20°C for 20 min.
After washing, 500 μl RNase was added, followed by incubation for 30 min. PI was then added,
followed by incubation for 30 min (light was avoided).

[6] = tested on: MCF-7 cells; assay: Annexin V-FITC/PI apoptosis induction analysis (flow cytometry); assay type: cell-based, human; conditions: MCF-7, compound at its IC50, 24 h
[7] = tested on: normal breast cell line (MCF-10a); assay: MTT cytotoxicity assay, normal breast cell line MCF-10a; assay type: cell-based; conditions: Homo sapiens, 24 h treatment, read-out: IC50 against MCF-10a (normal cell)
Description: as §8, §4, §5, §6
Means with any Common letter (a-e) are not significant (OR Means with totally Different letters (a-e) are significant) Annexin V-FITC/PI Apoptosis Induction Analysis 3
Apoptosis detection in MCf-7 cells was assessed using BioVision® annexin‐V‐FITC apoptosis detection kit according to the manufacturer's instructions and quantified by flow cytometry at 488

[8] = MCF-7, compound at its IC50, 24 h, listed as Dox

Cn1c(-c2ccccc2)cn(N=C2C(=O)c3cccc4cccc2c34)c1=S [5a, 2-((3-Methyl-4-phenyl-2-thioxo-2,3-dihydro-1H-imidazol-1-yl)imino)acenaphthylen-1(2H)-one]
melting point: 220 to 222 °C

O=C1C(=Nn2cc(-c3ccccc3)n(Cc3ccccc3)c2=S)c2cccc3cccc1c23 [5c, 2-((3-Benzyl-4-phenyl-2-thioxo-2,3-dihydro-1H-imidazol-1-yl)imino)-acenaphthylen-1(2H)-one]
melting point: 212 to 214 °C

O=C1C(=Nn2cc(-c3ccccc3)n(C3CCCCC3)c2=S)c2cccc3cccc1c23 [5d, 2-((3-Cyclohexyl-4-phenyl-2-thioxo-2,3-dihydro-1H-imidazol-1-yl)imino)-acenaphthylen-1(2H)-one]
melting point: 192 to 194 °C

COc1cccc(-n2c(-c3ccccc3)cn(N=C3C(=O)c4cccc5cccc3c45)c2=S)c1 [5e, 2-((3-(3-Methoxyphenyl)-4-phenyl-2-thioxo-2,3-dihydro-1H-imidazol-1-yl)imino)-acenaphthylen-1(2H)-one]
melting point: 212 to 214 °C | Tb luminescence enhancement (induced DNA damage) [1]: significant enhancement | Concentration at which Tb luminescence stops increasing (maximum DNA damage) ([1]; ctDNA, 24 h incubation): 80 µM | Concentration up to which no enhancement of Tb luminescence intensity occurs ([1]; ctDNA, 24 h incubation): 20 µM | LOD (limit of detection; minimum concentration inducing detectable damage in ctDNA) ([1]; ctDNA, 24 h incubation): 14.2 nM | LOQ (limit of quantitation) ([1]; ctDNA, 24 h incubation): 46.9 nM

C=CCn1c(-c2ccccc2)cn(N=C2C(=O)c3cccc4cccc2c34)c1=S [5f, 2-((3-Allyl-4-phenyl-2-thioxo-2,3-dihydro-1H-imidazol-1-yl)imino)acenaphthylen-1(2H)-one]
melting point: 212 to 214 °C | Tb luminescence enhancement (induced DNA damage) [1]: minimum enhancement

Cn1c(-c2ccc(Cl)cc2)cn(N=C2C(=O)c3cccc4cccc2c34)c1=S [5g, 2-((4–(4-Chlorophenyl)-3-methyl-2-thioxo-2,3-dihydro-1H-imidazol-1-yl)imino)-acenaphthylen-1(2H)-one]
melting point: 262 to 264 °C

O=C1C(=Nn2cc(-c3ccc(Cl)cc3)n(Cc3ccccc3)c2=S)c2cccc3cccc1c23 [5i, 2-((3-Benzyl-4-(4-chlorophenyl)-2-thioxo-2,3-dihydro-1H-imidazol-1-yl)imino)-acenaphthylen-1(2H)-one]
melting point: 260 to 262 °C

COc1cccc(-n2c(-c3ccc(Cl)cc3)cn(N=C3C(=O)c4cccc5cccc3c45)c2=S)c1 [5j, 2-((4-(4-Chlorophenyl)-3-(3-methoxyphenyl)-2-thioxo-2,3-dihydro-1H-imidazol-1-yl)-imino)acenaphthylen-1(2H)-one]
melting point: 282 to 284 °C | IC50 [2]: 10.8 µM | Tb luminescence enhancement (induced DNA damage) [1]: significant enhancement | Concentration at which Tb luminescence stops increasing (maximum DNA damage) ([1]; ctDNA, 24 h incubation): 60 µM | LOD (limit of detection; minimum concentration inducing detectable damage in ctDNA) ([1]; ctDNA, 24 h incubation): 12.7 nM | LOQ (limit of quantitation) ([1]; ctDNA, 24 h incubation): 42.4 nM | IC50 [3]: 7.9 µM

C=CCn1c(-c2ccc(Cl)cc2)cn(N=C2C(=O)c3cccc4cccc2c34)c1=S [5k, 2-((3-Allyl-4-(4-chlorophenyl)-2-thioxo-2,3-dihydro-1H-imidazol-1-yl)imino)-acenaphthylen-1(2H)-one]
melting point: 262 to 264 °C | Tb luminescence enhancement (induced DNA damage) [1]: minimum enhancement

Cn1c(-c2ccc3ccccc3c2)cn(N=C2C(=O)c3cccc4cccc2c34)c1=S [5l, 2-((3-Methyl-4-(naphthalen-2-yl)-2-thioxo-2,3-dihydro-1H-imidazol-1-yl)imino)-acenaphthylen-1(2H)-one]
melting point: 240 to 242 °C

O=C1C(=Nn2cc(-c3ccc4ccccc4c3)n(Cc3ccccc3)c2=S)c2cccc3cccc1c23 [5m, 2-((3-Benzyl-4-(naphthalen-2-yl)-2-thioxo-2,3-dihydro-1H-imidazol-1-yl)imino)-acenaphthylen-1(2H)-one]
melting point: 332 to 334 °C

C=CCn1c(-c2ccc3ccccc3c2)cn(N=C2C(=O)c3cccc4cccc2c34)c1=S [5n, 2-((3-Allyl-4-(naphthalen-2-yl)-2-thioxo-2,3-dihydro-1H-imidazol-1-yl)imino)-acenaphthylen-1(2H)-one]
melting point: 230 to 232 °C | Tb luminescence enhancement (induced DNA damage) [1]: minimum enhancement

COc1cccc2c1C(=O)c1c(O)c3c(c(O)c1C2=O)C[C@@](O)(C(=O)CO)C[C@@H]3O[C@H]1C[C@H](N)[C@H](O)[C@H](C)O1 [doxorubicin, reference compound]
IC50 ([4]; Homo sapiens, MCF7, MTT, 24 h treatment, read-out: IC50 against MCF-7): 8.24 µM | Selectivity Index (SI) ([4]; against MCF-7, relative to normal MCF-10a): 3.9 | Phase of cell cycle arrest ([5]; MCF-7, compound at its IC50): G1/S phase | Cell cycle arrest (%) G0-G1 [5, 8]: 63.5 ± 0.51% | Cell cycle arrest (%) G2/M [5, 8]: 2.4 ± 0.73% | Cell cycle arrest (%) S [5, 8]: 34.2 ± 0.22% | Tb luminescence enhancement (induced DNA damage) [1]: significant enhancement | LOD (limit of detection; minimum concentration inducing detectable damage in ctDNA) ([1]; ctDNA, 24 h incubation): 4.09 nM | LOQ (limit of quantitation) ([1]; ctDNA, 24 h incubation): 13.7 nM | Apoptosis results: Early apoptosis [6]: 8.3 ± 0.53% | Apoptosis results: Late apoptosis [6]: 31.3 ± 0.62% | Apoptosis results: Total [6]: 46.2 ± 0.53% | Apoptosis results: Early apoptosis ([6]; listed as Dox): 8.3 ± 0.53% | Apoptosis results: Late apoptosis ([6]; listed as Dox): 31.3 ± 0.62% | Apoptosis results: Necrosis ([6]; listed as Dox): 6.6 ± 0.61% | IC50 [7]: 32.4 µM
